# Experimental data as given in paper PMC7329366 (Molecular nutrition & food research, 2020).
# Like-named read-outs stand apart in the source and are kept apart here.
# Tests used:
# [1] = assay type: in vivo, C57BL/6J mice; conditions: for presence in the brain: brain of either sexes after oral RK; for Cmax: mean±SEM
# [2] = Plasma pharmacokinetics after a single oral RK dose, male vs female mice; assay type: in vivo, C57BL/6J mice
# [3] = Plasma pharmacokinetics after a single oral RK dose, normal-weight; assay type: in vivo, C57BL/6J mice; conditions: for AUC(0-t): AUC (0–12 h); for half-life: T1/2 (elimination half-life)
# [4] = assay type: in vivo, C57BL/6J mice; conditions: single oral RK 200 mg kg^−1; for half-life: T1/2 (elimination half-life)
# [5] = Distribution in white adipose tissue; assay type: in vivo, C57BL/6J mice; conditions: epididymal WAT; for increase in WAT level in obese animals compared with normal-weight: between 15 and 30 min; for time within which considerable accumulation in WAT was observed: male mice, oral RK 200 mg kg^−1
# [6] = assay type: in vivo; conditions: in 24 h, normal-weight male mice, preliminary dosing tests
# [7] = female, C57BL/6J, mouse, plasma, po, 200 mg/kg
# [8] = male, C57BL/6J, mouse, plasma, po, 200 mg/kg
# [9] = Br-F: brain, female LFD mice, single oral RK 200 mg kg^−1
# [10] = Br-M: brain, male LFD mice, single oral RK 200 mg kg^−1
# [11] = female, C57BL/6J, mouse, brain, po, 200 mg/kg
# [12] = male, C57BL/6J, mouse, brain, po, 200 mg/kg
# [13] = male, C57BL/6J, mouse, plasma, po, 200 mg/kg, Pl-N: plasma, normal-weight male mice, single oral RK 200 mg kg^−1
# [14] = male, C57BL/6J, mouse, plasma, po, 200 mg/kg, Pl-O: plasma, obese male mice, single oral RK 200 mg kg^−1
# [15] = male, C57BL/6J, mouse, plasma, po, 200 mg/kg, Tmax, Pl-N: plasma, normal-weight male mice, single oral RK 200 mg kg^−1
# [16] = Br-N: brain, normal-weight male mice
# [17] = male, C57BL/6J, mouse, brain, po, 200 mg/kg, Br-N: brain, normal-weight male mice
# [18] = male, C57BL/6J, mouse, brain, po, 200 mg/kg, Tmax, Br-N: brain, normal-weight male mice
# [19] = Pl-F: plasma, female LFD mice, single oral RK 200 mg kg^−1
# [20] = Pl-M: plasma, male LFD mice, single oral RK 200 mg kg^−1
# [21] = Pl-N: plasma, normal-weight male mice, single oral RK 200 mg kg^−1
# [22] = Pl-O: plasma, obese male mice, single oral RK 200 mg kg^−1
# [23] = male, C57BL/6J, mouse, brain, po, 200 mg/kg, Br-O: brain, obese male mice
SMILES,presence in the brain [1],"Cmax [2, 7] [µM]","Tmax [2, 7] [min]","AUC(0-t) [2, 8] [µM·h]","Tmax [2, 8] [min]","half-life [2, 8] [min]","Cmax [1, 9] [nmol/g]","Cmax [1, 10] [nmol/g]","Tmax [1, 11] [min]","half-life [1, 11] [min]","Tmax [1, 12] [min]","half-life [1, 12] [min]","AUC(0-t) [3, 13] [µM·h]","half-life [3, 13] [min]","half-life [3, 14] [min]","Tmax [3, 15] [min]","Cmax [4, 16] [nmol/g]","half-life [4, 17] [min]","Tmax [4, 18] [min]",time within which considerable accumulation in WAT was observed [5] [min],further results
CC(=O)C=Cc1ccccc1 [benzylideneacetone],not found,–,–,–,–,–,–,–,–,–,–,–,–,–,–,–,–,–,–,–,–
"OCCc1ccc(O)c(O)c1 [3,4-DHPE, 2-(3,4-dihydroxyphenyl)ethanol]",–,0.024 ± 0.002,15,0.057 ± 0.006,20,41.8 ± 1.25,0.020 ± 0.006,0.021 ± 0.003,15,20.3 ± 1.41,15,21 ± 0.16,0.08 ± 0.006,48.9 ± 6.9,51.7 ± 4.36,20,0.031 ± 0.003,35.5 ± 3.94,20,–,"half-life [2, 7]: 63.6 ± 6.84 min; Cmax ([4]; Br-O: brain, obese male mice): 0.025 ± 0.002 nmol/g"
"CC(O)CCc1ccc(O)cc1 (stereo not drawn) [ROH, raspberry alcohol]",–,–,–,–,–,–,21.6 ± 4.72,21.0 ± 2.68,–,–,–,–,–,–,–,–,55.1 ± 8.12,–,–,≤ 15,"AUC (0–12 h) [2, 19]: 158 ± 17.1 nmol/mL/min; Tmax [2, 19]: 25.0 ± 4.99 min; Cmax ([2]; Pl-F: plasma, female LFD mice, single oral RK 200 mg kg^−1, mean±SEM): 130 ± 12.7 µM; AUC (0–12 h) [2, 20]: 177 ± 11.8 nmol/mL/min; T1/2 (elimination half-life) [2, 20]: 63.2 ± 2.61 min; Tmax [2, 20]: 25.0 ± 4.99 min; T1/2 (elimination half-life) [1, 10]: 32.0 ± 0.77 min; Tmax [1, 10]: 20.0 ± 5.0 min; AUC (0–12 h) [3, 21]: 208 ± 22.0 nmol/mL/min; T1/2 (elimination half-life) [3, 21]: 66.1 ± 1.7 min; Tmax [3, 21]: 25.0 ± 5.0 min; T1/2 (elimination half-life) [3, 22]: 70.0 ± 1.5 min; Tmax [3, 22]: 50.0 ± 10.0 min; T1/2 (elimination half-life) [4, 16]: 33.7 ± 2.2 min; Tmax [4, 16]: 20.0 ± 5.0 min; Cmax ([4]; Br-O: brain, obese male mice): 60.3 ± 6.6 nmol/g; Tmax ([4]; Br-O: brain, obese male mice): 40.0 ± 10.0 min; increase in WAT level in obese animals compared with normal-weight [5]: 30–90%"
O=C(O)CCc1cccc(O)c1 [3-(3-hydroxyphenyl)propionic acid],not found,–,–,–,–,–,–,–,–,–,–,–,–,–,–,–,–,–,–,–,–
"COc1cc(CCC(C)=O)ccc1O [VLAce, vanillylacetone]",–,9.94 ± 2.4,15,31 ± 3.65,25,46.4 ± 2.1,1.49 ± 0.30,1.51 ± 0.15,–,89.2 ± 10,15,84.1 ± 3.55,61.2 ± 4.7,40.9 ± 4.8,68.8 ± 17.3,25,2.07 ± 0.24,44.4 ± 2.18,40,≤ 15,–
"COc1ccc(CCC(C)=O)cc1 [RK-Me, 4-(4-methoxy-phenyl)-2-butanone]",not found,0.086 ± 0.022,25,0.05 ± 0.005,20,26.7 ± 2.81,–,–,–,–,–,–,0.039 ± 0.008,31 ± 5.6,41.7 ± 1.2,20,–,–,–,≤ 15,"AUC(0-t) [2, 7]: 0.069 ± 0.01 µM·h; half-life [2, 7]: 31.4 ± 1.84 min; AUC(0-t) [3, 14]: 0.047 ± 0.007 µM·h"
COc1cc(/C=C/C(=O)O)ccc1O [ferulic acid],not found,–,–,–,–,–,–,–,–,–,–,–,–,–,–,–,–,–,–,–,–
"OCCc1ccc(O)cc1 [4-HPE, 2-(4-hydroxyphenyl)ethanol]",–,43.6 ± 2.9,40,108 ± 10.9,50,104 ± 2.1,1.28 ± 0.08,1.03 ± 0.14,20,–,15,64.7 ± 7.78,20.7 ± 2.92,73 ± 4.7,56.3 ± 8.8,20,6.14 ± 0.49,31.5 ± 4.38,25,≤ 15,"AUC(0-t) [2, 7]: 98.7 ± 7.38 µM·h; AUC(0-t) [3, 14]: 28.7 ± 3.65 µM·h; Cmax ([4]; Br-O: brain, obese male mice): 7.92 ± 1.60 nmol/g; half-life [4, 23]: 38.8 ± 2.56 min"
"CC(=O)C=Cc1ccc(O)c(O)c1 [DHPhLiAce, 3,4-dihydroxybenzylideneacetone]",–,–,15,0.465 ± 0.046,40,41.4 ± 2.91,0.112 ± 0.042,0.067 ± 0.011,25,35.8 ± 2.29,20,33.4 ± 0.73,1.04 ± 0.16,41.6 ± 3,48 ± 2.1,30,0.23 ± 0.012,36.2 ± 1.6,30,≤ 15,"half-life [2, 7]: 30 ± 4.24 min; AUC(0-t) [3, 14]: 1.38 ± 0.04 µM·h; half-life [4, 23]: 37.2 ± 0.22 min"
"CC(=O)CCc1ccc(O)cc1 [RK, 4-(4-hydroxyphenyl)-2-butanone]",–,281 ± 17.1,15,358 ± 34,15,78.4 ± 3.55,37.4 ± 8.73,28.9 ± 2.42,15,28.3 ± 1.65,15,25.7 ± 2,387 ± 25.6,73.3 ± 1.2,94.7 ± 7.8,15,32.7 ± 4.34,39.5 ± 1.9,20,≤ 15,"Tmax ([2]; both, C57BL/6J, mouse, plasma, po, 200 mg/kg): ~15 min; AUC(0-t) [2, 7]: 299 ± 20.2 µM·h; time of absorption and tissue accumulation ([2]; oral RK 200 mg kg^−1, this study): < 30 min; maximal circulating concentration ([3]; plasma, normal-weight mice): 236 nM; maximal circulating concentration ([3]; plasma, obese mice): 318 nM; twelve-hour plasma accumulation in obese animals as % of normal-weight ones ([3]; plasma, obese vs normal-weight): 152.2–197.6%; Cmax ([4]; Br-O: brain, obese male mice): 46.7 ± 6.2 nmol/g; half-life [4, 23]: 41.5 ± 4 min; increase in WAT level in obese animals compared with normal-weight [5]: 30–90%; higher residual content in WAT of obese mice ([5]; between 30 min and 2 h, obese vs normal-weight): > 100%; clearance from the bloodstream [6]: > 99%"
